Measured values taken from patent publication US7235263B2, “Processes for controlling microbial organic compound production” (Kimberly-Clark Worldwide, Inc., priority 2001, dated 2007).

Legend:
Assay type in all cases: cell-based
Proteus mirabilis = assay: Growth of aerobically cultivated Proteus mirabilis in urine:TSB, microtiter serial dilution, optical density; settings: for optical density (bacterial cell growth): 48 hours at 37° C., aerobic
Protocol: Proteus mirabilis was cultured in TSB as described in Example 1 and transferred to a urine:TSB mixture (9:1) and incubated under aerobic conditions as described in Example 1. […] In a 96-well microtiter plate with a lid, 150 microliters of each 10% solution was introduced into the first and second columns of the wells. Using a multi-channel pipette, 150 microliters of urine:TSB mixture was introduced into each well except the first column. Beginning at the second column of wells, serial dilutions were made by removing 150 microliters from the second column and transferring it to the third column. The mixture was mixed by pipetting up and down three times. The serial dilutions continued across each column of the plate and, after column 11, 150 microliters was discarded leaving column 12 as the 0% solution. Each well was then inoculated with 1 microliter of Proteus mirabilis, except for the negative control rows. One to three drops of anti-fogging solution was place on the plate lids with a cotton applicator, and allowed to air dry. The mixtures were incubated for 48 hours at 37° C. under aerobic conditions. After incubation of the samples, each was analyzed for bacterial cell growth utilizing the optical density procedure as set forth in Example 1.

[1] = tested on: Proteus mirabilis (ATCC 29906); assay: Ammonia production by facultatively grown Proteus mirabilis in urine:TSB (ammonia probe)
Protocol: (§1) Proteus mirabilis was taken from a TSB culture (described in (1) above) and grown under various conditions for use in the Examples. For bacteria to be grown under aerobic conditions, 50 microliters of Proteus mirabilis was taken from a TSB culture prepared as described above and inoculated into a 50 mL volume of a freshly made 9:1 (by volume) pooled adult female urine:TSB mixture into a 250 mL shake flask. This mixture was rotated at 250 rpm at 37° C. overnight to grow the bacteria. For bacteria to be grown under facultative conditions, 10 microliters of Proteus mirabilis was taken from a TSB culture prepared as described above and inoculated into a 10 mL volume of a freshly made 9:1 (by volume) pooled adult female urine:TSB mixture into a 15 mL tube. The tube was loosely fitted with a screw cap, and held stationary at 37° C. overnight to grow the bacteria. For bacteria to be grown under anaerobic conditions, 10 microliters of Proteus mirabilis was taken from a TSB culture prepared as described above and inoculated into a 10 mL volume of a freshly made 9:1 (by volume) pooled adult female urine:TSB mixture into a 15 mL conical tube. The tube was purged with nitrogen and a screw cap tightly closed, and then was held stationary overnight at 37° C. to grow the bacteria.
Upon completion of the respective incubation periods of the samples, optical density measurements of each sample were taken as described above and ammonia production of the growth solutions was measured using an ammonia combination probe (Beckman, Fullerton, Calif.) by record mV using an Orion pH meter (Orion, Boston, Mass.). Orion ammonia standards (Orion) were used to calibrate the instrument.
(§2) In this Example, six different samples were prepared for analysis. The first sample comprised a urine:TSB mixture that was prepared in the same manner as that described in Example 1. […] The tube was loosely fitted with a screw cap, and held stationary at 37° C. overnight to grow the bacteria. […] The fifth sample comprising urine:TSB:Proteus mirabilis (facultatively grown) was prepared in the same manner as that described in Example 1.

[2] = tested on: Proteus mirabilis (ATCC 29906); assay: Bacterial yield of facultatively grown Proteus mirabilis in urine:TSB (from optical density); settings: Table 7; 10% (w/v) mannitol; facultative
Protocol: Proteus mirabilis (ATCC 29906) were recovered from frozen state by growing the appropriate bacterial coated MicroBank Bead (Pro Lab, Austin Tex.) in 10 mL trypticase soy broth (TSB, Difco, Ann Arbor, Mich.) in a 15 mL sterile loosely tightened screw capped conical tube overnight at 37° C. The tube was held stationary. (E. coli (ATCC 8739), utilized in Example 6 herein, was recovered using the same procedure described herein for Proteus mirabilis). Upon observation of turbidity, the bacterial suspension was checked for purity by isolation plate and Gram stain. Once determined that the isolate was Proteus mirabilis (or E. coli in Example 6), a colony from the isolation plate was transferred to 10 mL of TSB in a 15 mL sterile screw capped conical tube and incubated overnight at 37° C. under facultative conditions. Samples of bacterial suspension resulting from this overnight TSB culture were used to initiate all experiments utilizing Proteus mirabilis bacteria (or E. coli in Example 6).
as §1
In this Example, five samples were prepared and analyzed to determine: (1) Bacterial Yield (CFU/mL) calculated from optical density; (3) Percent viability of EPIOCULAR; and (4) EPIOCULAR IL-8. The samples included: (1) Deionized Water; (2) A urine:TSB mixture (9:1 by volume) as described above; (3) A urine:TSB mixture containing Proteus mirabilis bacteria grown under aerobic conditions as described above; (4) A urine:TSB mixture containing Proteus mirabilis bacteria grown under facultative conditions as described above; and (5) A urine:TSB mixture containing Proteus mirabilis bacteria grown under anaerobic conditions as described above.
as §2

[3] = Table 7, 10% (w/v) mannitol, facultative

| Compound | optical density (bacterial cell growth) (Proteus mirabilis; 0.0097% in urine:TSB) | optical density (bacterial cell growth) (Proteus mirabilis; 0.0195% in urine:TSB) | optical density (bacterial cell growth) (Proteus mirabilis; 0.0391% in urine:TSB) | optical density (bacterial cell growth) (Proteus mirabilis; 0.0785% in urine:TSB) | optical density (bacterial cell growth) (Proteus mirabilis; 0.156% in urine:TSB) | optical density (bacterial cell growth) (Proteus mirabilis; 0.313% in urine:TSB) | optical density (bacterial cell growth) (Proteus mirabilis; 0.625% in urine:TSB) | optical density (bacterial cell growth) (Proteus mirabilis; 1.25% in urine:TSB) | optical density (bacterial cell growth) (Proteus mirabilis; 2.5% in urine:TSB) | optical density (bacterial cell growth) (Proteus mirabilis; 5% in urine:TSB) | optical density (bacterial cell growth) (Proteus mirabilis; 10% in urine:TSB) | effect on cell growth (Proteus mirabilis; at elevate concentrations) | effect on cell growth (Proteus mirabilis; at low concentrations) | Ammonia Produced (n = 3) [1, 3] | Ammonia/Cell [1, 3] | impact on the production of ammonia in the bacteria ([1]; mannitol in the absence of hydrogen peroxide, 10% (w/v)) | Bacterial Yields [2] |
| --- | --- | --- | --- | --- | --- | --- | --- | --- | --- | --- | --- | --- | --- | --- | --- | --- | --- |
| mannitol peroxide [4.5 Hr.] | 0.97 | 0.98 | 0.99 | 0.99 | 0.98 | 0.99 | 0.93 | 0.99 | 0.97 | 0.87 | 0.04 |  |  |  |  |  |  |
| OC[C@@H](O)[C@@H](O)[C@H](O)[C@H](O)CO [Mannitol, mannitol, reference compound] | 0.98 | 0.98 | 0.97 | 0.97 | 0.92 | 0.92 | 0.98 | 1.02 | 0.99 | 0.89 | 0.87 | little, if any, effect on cell growth | no effect on cell growth | 621.6 ± 1.8 ppm | 83.8 ppm/10E8CFU | does not significantly impact the production of ammonia | 6.91E+8 CFU/mL |
| mannitol peroxide [24 Hr.] | 0.99 | 0.98 | 0.99 | 0.97 | 0.97 | 0.97 | 0.96 | 0.95 | 0.93 | 0.88 | 0.80 |  |  |  |  |  |  |
| mannitol peroxide [3 Hr.] | 0.98 | 0.94 | 0.94 | 0.97 | 0.99 | 0.83 | 0.99 | 0.04 | 0.03 | 0.03 | 0.03 |  |  |  |  |  |  |
